Values quoted from earlier work in US20140316796A1, “SYSTEMS, METHODS, AND COMPUTER-READABLE MEDIA FOR LIMITED DISTRIBUTION OF SPECIALTY DRUG USING A COMPUTER HUB OPERATING AT A SINGLE ACCESS POINT” (Jazz Pharmaceuticals, priority 2013, published 2014).

Details: pH 4

In the case of CSCC[C@@H]1NC(=O)[C@H](CC(C)C)NC(=O)[C@H](CCCNC(=N)N)NC(=O)[C@H](CO)NC(=O)[C@@H]2CSSC[C@@H]3NC(=O)[C@H](CO)NC(=O)CNC(=O)[C@H]([C@@H](C)O)NC(=O)[C@H](CSSC[C@H](N)C(=O)N[C@@H](CCCCN)C(=O)NCC(=O)N[C@@H](CCCCN)C(=O)NCC(=O)N[C@@H](C)C(=O)N[C@@H](CCCCN)C(=O)N2)NC(=O)[C@H](CSSC[C@@H](C(N)=O)NC(=O)[C@H](CCCCN)NC(=O)CNC(=O)[C@H](CO)NC(=O)[C@H](CCCNC(=N)N)NC3=O)NC(=O)[C@H](CC(=O)O)NC(=O)[C@H](Cc2ccc(O)cc2)NC1=O [ziconotide], the solution stability is listed as “stable at 45 °C for weeks”.
